Laboratory results published in the supplement of paper PMC13207355.

Legend:
Settings in all cases: exposure time: 72 h
[1] = system: E28 (patient-derived glioblastoma stem cells of classical subtype); experiment: phenotypic distance (Euclidean, principal components) from DMSO controls (arbitrary units); higher = stronger morphological change
[2] = system: FT3469 (normal neural stem cell line); experiment: as above
[3] = system: E13 (patient-derived glioblastoma stem cells of classical subtype); experiment: as above
[4] = system: E34 (patient-derived glioblastoma stem cells of proneural subtype); experiment: as above
[5] = system: E57 (patient-derived glioblastoma stem cells of mesenchymal subtype); experiment: as above
[6] = system: E21 (patient-derived glioblastoma stem cells of mesenchymal subtype); experiment: as above
[7] = system: E31 (patient-derived glioblastoma stem cells of proneural subtype); experiment: as above
[8] = system: E28; experiment: surviving fraction (nuclei count normalised to DMSO); higher = more cells surviving (less toxic)
[9] = system: FT3469; experiment: as above
[10] = system: E13; experiment: as above
[11] = system: E34; experiment: as above
[12] = system: E57; experiment: as above
[13] = system: E21; experiment: as above
[14] = system: E31; experiment: as above
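Throughout, for phenotypic distance (Euclidean, principal components) from DMSO controls: cell Painting imaging in 384-well plates, CellProfiler features reduced to at least 20 principal components, Euclidean distance versus same-plate DMSO vehicle wells (0.1% v/v), median over six images per well.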
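Throughout, for surviving fraction (nuclei count normalised to DMSO): nuclei counted by high-content imaging of Hoechst-stained cells in laminin-coated 384-well plates, relative to 0.1% DMSO vehicle wells, with staurosporine as cell-death control.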

Cn1nnc2c(C(N)=O)ncn2c1=O [Temozolomide]
Settings | phenotypic distance | surviving fraction
[1], 4.1 nM | 0.473 | –
[1], 12.3 nM | 0.496 | –
[1], 37 nM | 0.568 | –
[1], 111.1 nM | 0.62 | –
[1], 333.3 nM | 0.378 | –
[1], 1000 nM | 0.593 | –
[1], 3000 nM | 0.453 | –
[2], 4.1 nM | 1.43 | –
[2], 12.3 nM | 1.01 | –
[2], 37 nM | 0.484 | –
[2], 111.1 nM | 0.802 | –
[2], 333.3 nM | 0.852 | –
[2], 1000 nM | 0.793 | –
[2], 3000 nM | 0.513 | –
[3], 4.1 nM | 0.92 | –
[3], 12.3 nM | 0.797 | –
[3], 37 nM | 0.786 | –
[3], 111.1 nM | 0.576 | –
[3], 333.3 nM | 0.8 | –
[3], 1000 nM | 0.525 | –
[3], 3000 nM | 0.666 | –
[4], 4.1 nM | 0.82 | –
[4], 12.3 nM | 0.663 | –
[4], 37 nM | 0.714 | –
[4], 111.1 nM | 0.388 | –
[4], 333.3 nM | 0.867 | –
[4], 1000 nM | 0.392 | –
[4], 3000 nM | 0.466 | –
[5], 4.1 nM | 0.77 | –
[5], 12.3 nM | 0.543 | –
[5], 37 nM | 0.294 | –
[5], 111.1 nM | 0.599 | –
[5], 333.3 nM | 0.816 | –
[5], 1000 nM | 0.662 | –
[5], 3000 nM | 1.29 | –
[6], 4.1 nM | 1.04 | –
[6], 12.3 nM | 0.604 | –
[6], 37 nM | 0.561 | –
[6], 111.1 nM | 0.642 | –
[6], 333.3 nM | 1.07 | –
[6], 1000 nM | 0.394 | –
[6], 3000 nM | 0.971 | –
[7], 4.1 nM | 1.06 | –
[7], 12.3 nM | 2.72 | –
[7], 37 nM | 0.892 | –
[7], 111.1 nM | 0.246 | –
[7], 333.3 nM | 0.629 | –
[7], 1000 nM | 0.411 | –
[7], 3000 nM | 0.89 | –
[8], 4.1 nM | – | 0.981
[8], 12.3 nM | – | 0.95
[8], 37 nM | – | 1.11
[8], 111.1 nM | – | 1.02
[8], 333.3 nM | – | 1.06
[8], 1000 nM | – | 0.921
[8], 3000 nM | – | 0.979
[9], 4.1 nM | – | 1.01
[9], 12.3 nM | – | 0.927
[9], 37 nM | – | 1
[9], 111.1 nM | – | 0.936
[9], 333.3 nM | – | 1.18
[9], 1000 nM | – | 0.822
[9], 3000 nM | – | 1.04
[10], 4.1 nM | – | 0.934
[10], 12.3 nM | – | 0.862
[10], 37 nM | – | 0.932
[10], 111.1 nM | – | 0.981
[10], 333.3 nM | – | 0.909
[10], 1000 nM | – | 0.936
[10], 3000 nM | – | 1.04
[11], 4.1 nM | – | 0.988
[11], 12.3 nM | – | 0.89
[11], 37 nM | – | 1.01
[11], 111.1 nM | – | 0.947
[11], 333.3 nM | – | 1.06
[11], 1000 nM | – | 1.02
[11], 3000 nM | – | 1.07
[12], 4.1 nM | – | 0.946
[12], 12.3 nM | – | 0.909
[12], 37 nM | – | 0.95
[12], 111.1 nM | – | 0.958
[12], 333.3 nM | – | 0.951
[12], 1000 nM | – | 0.953
[12], 3000 nM | – | 0.931
[13], 4.1 nM | – | 0.919
[13], 12.3 nM | – | 0.974
[13], 37 nM | – | 0.955
[13], 111.1 nM | – | 0.899
[13], 333.3 nM | – | 0.883
[13], 1000 nM | – | 0.988
[13], 3000 nM | – | 0.862
[14], 4.1 nM | – | 0.882
[14], 12.3 nM | – | 0.904
[14], 37 nM | – | 0.833
[14], 111.1 nM | – | 1.02
[14], 333.3 nM | – | 1.02
[14], 1000 nM | – | 0.972
[14], 3000 nM | – | 0.803

O=C1CC[C@@H](C(=O)N2CSC[C@H]2C(=O)O)N1 [Pidotimod]
Settings | phenotypic distance | surviving fraction
[1], 4.1 nM | 0.887 | –
[1], 12.3 nM | 1.4 | –
[1], 37 nM | 0.401 | –
[1], 111.1 nM | 0.59 | –
[1], 333.3 nM | 0.551 | –
[1], 1000 nM | 0.647 | –
[1], 3000 nM | 0.608 | –
[2], 4.1 nM | 0.84 | –
[2], 12.3 nM | 0.912 | –
[2], 37 nM | 0.359 | –
[2], 111.1 nM | 0.641 | –
[2], 333.3 nM | 0.526 | –
[2], 1000 nM | 0.625 | –
[2], 3000 nM | 0.629 | –
[3], 4.1 nM | 0.802 | –
[3], 12.3 nM | 0.46 | –
[3], 37 nM | 0.672 | –
[3], 111.1 nM | 0.456 | –
[3], 333.3 nM | 3.33 | –
[3], 1000 nM | 0.449 | –
[3], 3000 nM | 0.493 | –
[4], 4.1 nM | 0.643 | –
[4], 12.3 nM | 0.613 | –
[4], 37 nM | 0.723 | –
[4], 111.1 nM | 0.721 | –
[4], 333.3 nM | 0.963 | –
[4], 1000 nM | 0.89 | –
[4], 3000 nM | 0.949 | –
[5], 4.1 nM | 0.799 | –
[5], 12.3 nM | 1.03 | –
[5], 37 nM | 0.543 | –
[5], 111.1 nM | 0.877 | –
[5], 333.3 nM | 0.527 | –
[5], 1000 nM | 0.924 | –
[5], 3000 nM | 0.651 | –
[6], 4.1 nM | 0.591 | –
[6], 12.3 nM | 0.496 | –
[6], 37 nM | 0.601 | –
[6], 111.1 nM | 0.694 | –
[6], 333.3 nM | 0.815 | –
[6], 1000 nM | 0.785 | –
[6], 3000 nM | 0.805 | –
[7], 4.1 nM | 0.386 | –
[7], 12.3 nM | 0.576 | –
[7], 37 nM | 0.777 | –
[7], 111.1 nM | 0.985 | –
[7], 333.3 nM | 0.492 | –
[7], 1000 nM | 0.921 | –
[7], 3000 nM | 0.594 | –
[8], 4.1 nM | – | 1.2
[8], 12.3 nM | – | 1.02
[8], 37 nM | – | 0.964
[8], 111.1 nM | – | 1.11
[8], 333.3 nM | – | 1.04
[8], 1000 nM | – | 1.16
[8], 3000 nM | – | 0.954
[9], 4.1 nM | – | 0.972
[9], 12.3 nM | – | 1.13
[9], 37 nM | – | 0.987
[9], 111.1 nM | – | 1.06
[9], 333.3 nM | – | 1.01
[9], 1000 nM | – | 1.01
[9], 3000 nM | – | 0.933
[10], 4.1 nM | – | 0.925
[10], 12.3 nM | – | 1.01
[10], 37 nM | – | 0.97
[10], 111.1 nM | – | 1
[10], 333.3 nM | – | 1.06
[10], 1000 nM | – | 1.01
[10], 3000 nM | – | 0.913
[11], 4.1 nM | – | 0.98
[11], 12.3 nM | – | 0.951
[11], 37 nM | – | 0.786
[11], 111.1 nM | – | 1.09
[11], 333.3 nM | – | 0.996
[11], 1000 nM | – | 1.04
[11], 3000 nM | – | 1.04
[12], 4.1 nM | – | 1.07
[12], 12.3 nM | – | 0.938
[12], 37 nM | – | 1.02
[12], 111.1 nM | – | 1.11
[12], 333.3 nM | – | 0.978
[12], 1000 nM | – | 1
[12], 3000 nM | – | 1.03
[13], 4.1 nM | – | 0.96
[13], 12.3 nM | – | 1
[13], 37 nM | – | 0.984
[13], 111.1 nM | – | 1.08
[13], 333.3 nM | – | 0.991
[13], 1000 nM | – | 0.96
[13], 3000 nM | – | 0.947
[14], 4.1 nM | – | 1.08
[14], 12.3 nM | – | 1.02
[14], 37 nM | – | 1.01
[14], 111.1 nM | – | 1.11
[14], 333.3 nM | – | 0.994
[14], 1000 nM | – | 1.17
[14], 3000 nM | – | 0.845
